From BigSolDB 2.1

CCn1c2ccccc2c2ccccc21
solubility (mole fraction)
Settings | in ethanol | in isopropanol | in methanol | in n-butanol | in n-pentanol | in n-propanol
279.15 K | 0.0069 | 0.0065 | 0.0028 | 0.0135 | – | 0.0092
283.15 K | 0.008 | 0.0076 | 0.0033 | 0.0151 | 0.016 | 0.0105
287.15 K | 0.0095 | 0.009 | 0.004 | 0.0172 | 0.0183 | 0.0124
291.15 K | 0.0112 | 0.0107 | 0.0047 | 0.0208 | 0.021 | 0.0142
295.15 K | 0.013 | 0.0127 | 0.0057 | 0.0234 | 0.025 | 0.0169
299.15 K | 0.0149 | 0.0152 | 0.0068 | 0.0271 | 0.0292 | 0.0202
303.15 K | 0.0182 | 0.0183 | 0.0082 | 0.0316 | 0.035 | 0.024
307.15 K | 0.0228 | 0.0223 | 0.0098 | 0.0379 | 0.042 | 0.028
311.15 K | 0.0274 | 0.028 | 0.012 | 0.0446 | 0.05 | 0.033
315.15 K | 0.0355 | 0.0342 | 0.0147 | 0.0522 | 0.0609 | 0.0401
319.15 K | 0.0433 | 0.0436 | 0.0179 | 0.0621 | 0.0743 | 0.048
